Where a name gives a salt, the structure may show the parent alone.
Molecular target: T1, recombinant purified human EHMT2 913-1193 (Homo sapiens, UniProt Q96KQ7)
T1 construct: Recombinant purified human EHMT2 913-1193 (55 μM) synthesized by Viva was used for all experiments; purchased Viva
T1 sequence (Q96KQ7 913-1193): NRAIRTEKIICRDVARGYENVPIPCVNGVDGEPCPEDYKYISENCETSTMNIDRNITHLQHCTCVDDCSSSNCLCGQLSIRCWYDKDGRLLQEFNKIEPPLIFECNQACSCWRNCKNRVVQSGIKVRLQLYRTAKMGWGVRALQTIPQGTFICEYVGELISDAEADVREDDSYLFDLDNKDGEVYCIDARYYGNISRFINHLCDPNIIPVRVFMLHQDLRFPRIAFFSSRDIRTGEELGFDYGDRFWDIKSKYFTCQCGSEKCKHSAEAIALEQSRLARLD
Experiment: EHMT2 enzyme assay on histone peptide substrate (3H-SAM Flashplate)
Assay type: biochemical
Details: read-out: EHMT2 PEP (IC50 μM)
Method in brief: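 Compounds (10-point 3-fold series, top 50 μM final, 2% DMSO) preincubated 30 min with 0.031 nM EHMT2 in 20 mM Bicine pH 7.5, 1 mM TCEP; reaction started with 3H-SAM and biotinylated H3 1-15 peptide, both at Km, run 60 min at room temperature. Flashplate capture; IC50 from four-parameter fit, triplicates.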

| IC50 | SMILES |
| --- | --- |
| 1 to 10 µM | CNc1cc(C)nc(Nc2ccc(C)c(-c3[nH]c4cnccc4c3C#N)c2)n1 [Compound 271] |
| < 0.1 µM | CNc1cc(C)nc(Nc2ccc(OC)c(-c3[nH]c4cnccc4c3CNC(C)=O)c2)n1 [Compound 316] |
| 0.1 to 1 µM | CNc1cc(C)nc(Nc2ccc(OC)c(-c3cc4[nH]ccc4c(C#N)n3)c2)n1 [Compound 292] |
| 0.1 to 1 µM | CNc1cc(C)nc(Nc2ccc(OC)c(-c3cc4[nH]ccc4c(CN)n3)c2)n1 [Compound 296] |
| > 10 µM | CNc1cc(C)nc(Nc2ccc(OC)c(-c3cccc4[nH]ccc34)c2)n1 [Compound 33, 2-N-[3-(1H-indol-4-yl)-4-methoxyphenyl]-4-N,6-dimethylpyrimidine-2,4-diamine hydrochloride] |
| > 10 µM | CNc1cc(C)nc(Nc2ccc(OC)c(-n3ncc4ccncc43)c2)n1 [Compound 36] |
| > 10 µM | CNc1cc(C)nc(Nc2ccc(OC)c(-c3nc4cnccn4n3)c2)n1 [Compound 38] |
| < 0.1 µM | CNc1cc(C)nc(Nc2ccc(C)c(-c3nc4ccncc4[nH]3)c2)n1 [Compound 279] |
| > 10 µM | CNc1cc(C)nc(Nc2ccc(C)c(-c3cc4ccccc4[nH]3)c2)n1 [Compound 274] |
| 1 to 10 µM | CNc1cc(C)nc(Nc2ccc(C)c(C(=O)Nc3cnccn3)c2)n1 [Compound 287] |
| 1 to 10 µM | CCNc1c[nH]c(=O)c(-c2cc(Nc3nc(C)cc(NC)n3)ccc2C)c1 [Compound 276] |
| < 0.1 µM | CCc1ccc(Nc2nc(C)cc(NC)n2)cc1-c1cc2ccncc2[nH]1 [Compound 269] |
| < 0.1 µM | CNc1cc(C)nc(Nc2ccc(C)c(-c3cc4[nH]ccc4cn3)c2)n1 [Compound 256] |
| > 10 µM | CNc1cc(C)nc(Nc2cnc(C)c(-c3cc4ccncc4[nH]3)c2)n1 [Compound 311] |
| > 10 µM | CNc1cc(C)nc(Nc2ccc(OC)c(-c3cccc4[nH]ncc34)c2)n1 [Compound 37, 2-N-[3-(1H-indazol-4-yl)-4-methoxyphenyl]-4-N,6-dimethylpyrimidine-2,4-diamine; trifluoroacetic acid] |
| 0.1 to 1 µM | CNCc1ccnc(-c2cc(Nc3nc(C)cc(NC)n3)ccc2OC)c1 [Compound 313] |
| < 0.1 µM | CNCc1cnn(-c2cc(Nc3nc(C)cc(NC)n3)ccc2C)c1 [Compound 286, N4,6-dimethyl-N2-(4-methyl-3-(4-((methylamino)methyl)-1H-pyrazol-1-yl)phenyl)pyrimidine-2,4-diamine] |
| < 0.1 µM | CNc1cc(C)nc(Nc2ccc(C)c(-n3cc4cnccc4n3)c2)n1 [Compound 282] |
| < 0.1 µM | CNc1cc(C)nc(Nc2ccc(OC)c(-c3cc4[nH]cc(C)c4cn3)c2)n1 [Compound 386] |
| 1 to 10 µM | CNc1cc(C)nc(Nc2ccc(OC)c(-c3[nH]c4cnccc4c3C#N)c2)n1 [Compound 291] |

Further lines, the compound ahead of its results:

| SMILES | IC50 |
| --- | --- |
| CNc1cc(C)nc(Nc2ccc(OC)c(-n3nccc3CN)c2)n1 [Compound 24] | 1 to 10 µM |
| CNC1=Nc2cc(-n3cc(C4CCCN4)cn3)c(Cl)cc2C12CCC2 (centres unmarked) [Compound 326] | < 0.1 µM |
| CNCc1cnn(-c2c(F)ccc(Nc3nc(C)cc(NC)n3)c2F)c1 [Compound 307] | < 0.1 µM |
| CNc1cc(C)nc(Nc2ccc(Cl)c(C(=O)Nc3ccncn3)c2)n1 [Compound 259] | > 10 µM |
| CNc1nc2cc(-c3cnc4cc[nH]c4c3)c(OC)cc2n1C [Compound 295] | 1 to 10 µM |
| CNC1=Nc2cc(-c3cnc4cc[nH]c4c3)c(OC)cc2C12CCC2 [Compound 294] | < 0.1 µM |
| CNc1nc2cc(-c3cc4ccncc4[nH]3)c(C)cc2n1C [Compound 278] | < 0.1 µM |
| CNCc1cnn(-c2cc(Nc3nc(C)cc(NC)n3)ccc2Br)c1 [Compound 319] | < 0.1 µM |
| CNc1cc(C)nc(Nc2ccc(C)c(C(=O)Nc3cn(C)nn3)c2)n1 [Compound 299] | > 10 µM |
| CNC1=Nc2cc(-c3cc4[nH]ccc4c(C(N)=O)n3)c(OC)cc2C12CCC2 [Compound 308] | 1 to 10 µM |
| CNc1cc(C)nc(Nc2ccc(Cl)c(C(=O)Nc3nccs3)c2)n1 [Compound 246] | 1 to 10 µM |
| CNc1nc(Nc2ccc(OC)c(-n3cc4c(n3)CCNC4)c2)nc(C)c1F [Compound 27, 5-fluoro-2-N-(4-methoxy-3-[2H,4H,5H,6H,7H-pyrazolo[4,3-c]pyridin-2-yl]phenyl)-4-N,6-dimethylpyrimidine-2,4-diamine trifluoroacetic acid] | 0.1 to 1 µM |
| CNc1nc(Nc2ccc(OC)c(-n3ncc4c3CCNC4)c2)nc(C)c1F [Compound 28, 5-fluoro-2-N-(4-methoxy-3-[1H,4H,5H,6H,7H-pyrazolo[4,3-c]pyridin-1-yl]phenyl)-4-N,6-dimethylpyrimidine-2,4-diamine trifluoroacetic acid] | 1 to 10 µM |
| CNCc1cn(-c2cc(Nc3nc(C)cc(NC)n3)ccc2OC)nc1F [Compound 323] | < 0.1 µM |
| CNc1cc(C)nc(Nc2ccc(Cl)c(C(=O)Nc3ccnnc3)c2)n1 [Compound 245] | > 10 µM |
| CNc1cc(C)nc(Nc2ccc(OC)c(-c3c(C)nc4n3CCNC4)c2)n1 [Compound 30] | > 10 µM |
| CNc1cc(C)nc(Nc2ccc(OC)c(-c3cc4[nH]ccc4c(CNC(C)=O)n3)c2)n1 [Compound 293] | 0.1 to 1 µM |
| CNc1cc(C)nc(Nc2ccc(F)c(-n3cc(CN4CCC4)cn3)c2F)n1 [Compound 315] | 0.1 to 1 µM |
| CNc1cc(C)nc(Nc2ccc(OC)c(-n3cc(C4CC4)cn3)c2)n1 [Compound 14, 2-N-[3-(4-cyclopropyl-1H-pyrazol-1-yl)-4-methoxyphenyl]-4-N,6-dimethylpyrimidine-2,4-diamine] | 1 to 10 µM |
| CNc1cc(C)nc(Nc2ccc(OC)c(-n3ncc4c3CCCN4)c2)n1 [Compound 32] | > 10 µM |
| CNCc1cc(-c2cc(Nc3nc(C)cc(NC)n3)ccc2OC)on1 [Compound 324] | 0.1 to 1 µM |
| CNc1cc(C)nc(Nc2ccc(Cl)c(-n3cc(C4CCCN4)cn3)c2)n1 (centres unmarked) [Compound 330] | < 0.1 µM |
| CNc1cc(C)nc(Nc2ccc(OC)c(-n3cc(C4CCCN4)cn3)c2)n1 (centres unmarked) [Compound 321] | < 0.1 µM |
| CCc1ccc(Nc2nc(C)cc(NC)n2)cc1C(=O)Nc1cccnc1 [Compound 244] | > 10 µM |

| SMILES | IC50 |
| --- | --- |
| CNc1cc(C)nc(Nc2ccc(Cl)c(-c3cc4c(cn3)CC(=O)N4)c2)n1 [Compound 260] | 1 to 10 µM |
| CNCc1cc(-c2cc(Nc3nc(C)cc(NC)n3)ccc2OC)no1 [Compound 331] | < 0.1 µM |
| CNc1cc(C)nc(Nc2cnc(OC)c(-n3ncc4c3CCNC4)c2)n1 [Compound 19] | 1 to 10 µM |
| CNc1cc(C)nc(Nc2ccc(Cl)c(C(=O)Nc3cnccn3)c2)n1 [Compound 251] | 1 to 10 µM |
| CNC1=Nc2cc(-c3cc4[nH]ccc4nc3C)c(OC)cc2C12CCC2 [Compound 300] | 0.1 to 1 µM |
| CNc1cc(C)nc(Nc2ccc(C)c(C(=O)Nc3cscn3)c2)n1 [Compound 280] | > 10 µM |
| CNCc1cnn(-c2c(OC)ccc(Nc3nc(C)cc(NC)n3)c2F)c1 [Compound 317, N2-(2-fluoro-4-methoxy-3-(4-((methylamino)methyl)-1H-pyrazol-1-yl)phenyl)-N4,6-dimethylpyrimidine-2,4-diamine] | < 0.1 µM |
| CNc1cc(C)nc(Nc2ccc(OC)c(-c3nccc(NC)n3)c2)n1 [Compound 306] | 1 to 10 µM |
| CNc1cc(C)nc(Nc2ccc(OC)c(-c3cc(C4CC4)on3)c2)n1 [Compound 13] | 1 to 10 µM |
| CNc1cc(C)nc(Nc2ccc(OC)c(-c3nnc4n3CCN(C)C4)c2)n1 [Compound 31] | > 10 µM |
| CNc1cc(C)nc(Nc2ccc(OC)c(-n3ncc4c3CCCC4)c2)n1 [Compound 26, 2-N-[4-methoxy-3-(4,5,6,7-tetrahydro-1H-indazol-1-yl)phenyl]-4-N,6-dimethylpyrimidine-2,4-diamine trifluoroacetic acid] | > 10 µM |
| CNC1=Nc2cc(-n3cc(CN4CCC4)cn3)c(OC)cc2C12CCC2 [Compound 314] | < 0.1 µM |
| COc1cc(NC2CCNC2)ccc1-c1[nH]c2cnccc2c1C (centres unmarked) [Compound 305] | 0.1 to 1 µM |
| Cc1cc(NC2CCNCC2)ncc1-c1cc2[nH]ccc2cn1 [Compound 247] | 1 to 10 µM |
| COc1cc(NC2CCNCC2)ccc1-c1[nH]c2cnccc2c1C [Compound 310] | 1 to 10 µM |
| CNc1cc(C)nc(Nc2ccc(C)c(C(=O)Nc3cn(C)cn3)c2)n1 [Compound 302] | > 10 µM |
| CNc1cc(C)nc(Nc2ccc(OC)c(-n3cccn3)c2)n1 [Compound 15, 2-N-[4-methoxy-3-(1H-pyrazol-1-yl)phenyl]-4-N,6-dimethylpyrimidine-2,4-diamine; trifluoroacetic acid] | > 10 µM |
| CNCc1cnn(-c2c(F)ccc(Nc3nc(C)cc(NC)n3)c2OC)c1 [Compound 318] | 0.1 to 1 µM |
| CNCc1cnn(-c2c(Cl)ccc(Nc3nc(C)cc(NC)n3)c2F)c1 [Compound 328] | < 0.1 µM |
| CNc1cc(C)nc(Nc2ccc(OC)c(-c3nnc4n3CCNC4)c2)n1 [Compound 21] | > 10 µM |
| CNCc1cnn(-c2c(F)ccc(Nc3nc(C)cc(NC)n3)c2Cl)c1 [Compound 329] | < 0.1 µM |
| CCc1ccc(Nc2nc(C)cc(NC)n2)cc1-n1cc(CNC)cn1 [Compound 320] | < 0.1 µM |
| CNCc1cnn(-c2cc(Nc3nc(C)cc(NC)n3)ccc2Cl)c1 [Compound 262, N2-(4-chloro-3-(4-((methylamino)methyl)-1H-pyrazol-1-yl)phenyl)-N4,6-dimethylpyrimidine-2,4-diamine] | < 0.1 µM |
| CNCc1cnn(-c2cc(Nc3nc(C)cc(NC)n3)ccc2OC)c1 [Compound 285] | < 0.1 µM |

From patent US20220235065A1 (Epizyme, Inc., priority 2016, published 2022)
